For this test, the target named is Transcription factor Jun (Homo sapiens, UniProt P05412). The test is described as follows: Inhibition of TPA-induced AP-1 activation in cells expressing beta-lactamase after 18 hrs using FRET substrate by cell-based high-throughput screening assay.

One may read the IC50 as the concentration that inhibits the measured activity by half. The low end stands for inhibition by little substance, the high end for a need for much substance.

Transcription factor Jun, sequence (P05412 whole entry): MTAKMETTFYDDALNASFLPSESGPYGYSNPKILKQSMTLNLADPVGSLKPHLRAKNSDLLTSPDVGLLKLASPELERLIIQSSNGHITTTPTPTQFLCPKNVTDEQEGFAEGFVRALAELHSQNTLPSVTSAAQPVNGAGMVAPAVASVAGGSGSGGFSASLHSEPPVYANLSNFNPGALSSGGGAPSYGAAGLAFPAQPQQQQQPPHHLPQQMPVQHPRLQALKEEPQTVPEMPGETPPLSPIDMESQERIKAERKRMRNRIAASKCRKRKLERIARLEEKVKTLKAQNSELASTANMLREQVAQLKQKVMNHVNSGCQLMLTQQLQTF

As to `CC(C)[C@H]1OC(=O)C=C2[C@]3(C)[C@H]4[C@H](OC(=O)[C@@]4(C)[C@@H](O)[C@H]4O[C@H]43)[C@H]3O[C@]213` [INUMAKILACTONE], half-maximal inhibition (IC50) required 4000 nM.
For `CC(C)[C@H]1OC(=O)C=C2C1=C[C@H]1OC(=O)[C@@]3(C)CCC[C@@]2(C)[C@@H]13` [NAGILACTONE F] the value was 1500 nM.

The values above are taken from ChEMBL document CHEMBL1765002, “Inhibitors of the oncogenic transcription factor AP-1 from Podocarpus latifolius” (J Nat Prod, 2011).
